Reference: patent US20260306579A1, “COMPOSITIONS AND METHODS FOR TREATMENT OF SEPTIC SHOCK” (PEROXITECH THERAPEUTICS, INC., priority 2023, published 2026)
Entries after “also recorded” stand apart in the source; their conditions may differ. Peptide text beside a SMILES is read from it.

Experiments:
Prdx6 = details: role: inhibitor; background statement; cited from earlier work
pancreatic PLA2 = details: role: inhibitor; background statement; cited from earlier work
ALI in mice = details: variety of mouse models of ALI; cited from earlier work
[1] = discussion statement, no data shown; cited from earlier work
[2] = system: LPS-induced sepsis in pigs; assay: Adverse effects in the LPS-induced ALI model in pigs / tolerability statements; parameters: species or system Yorkshire pigs (Sus scrofa domesticus); details: pig, in vivo; listed as PIP-2
Protocol: Prior to start of the experiment, the battery of systemic, cardiovascular, and pulmonary tests was carried out. These are called baseline measurements. Pigs were infused IV (zero time) with: Group 1, liposomes alone, no LPS (control, n=2); Group 2, LPS+liposomes (ALI untreated, n=6); and Group 3, LPS+PIP-2 in liposomes (ALI treated, n=12). Technical personnel responsible for animal care were “blinded” to the treatment conditions. LPS was given as an IV infusion of 50 ug/kg body weight over the first hour of the experiment. […] Either liposomes alone (Group 2) or PIP-2 in liposomes (Group 3) was infused as a “slow” bolus at the end of the LPS infusion. Liposomes were given at 2.22 mg/kg body weight. PIP-2 was given at 20 mg/kg body weight. Based on the measured encapsulation efficiency of ~15-20%, the IV administered PIP-2 was ~3-4 mg/kg body weight in liposomes and the remainder was in aqueous solution; presumably, the encapsulated PIP-2 was internalized by cells while the unencapsulated PIP-2 remained extracellular.

SP-A: surfactant protein A (SP-A), 246 amino acids of human SP-A
inhibition of aiPLA2 / PLA2 activity of Prdx6 (in words) (Prdx6): bind to Prdx6 preventing aiPLA2 activity; also recorded: binds to Prdx6 and inhibits its aiPLA2 activity

CCCCCCCCCCCCCCCCOCC(COCC(F)(F)F)OP(=O)(O)OC (stereo not drawn) [MJ33]
inhibition of aiPLA2 / PLA2 activity of Prdx6 (in words) (Prdx6): bind to Prdx6 preventing aiPLA2 activity | inhibition of other PLA2 enzymes (in words) (pancreatic PLA2): inhibits various PLA2 enzymes such as pancreatic PLA2 | effect on lung injury in mouse ALI models (in words) (ALI in mice): can significantly ameliorate lung injury; also recorded: markedly protective effect against lung injury

CC[C@H](C)[C@H](NC(=O)[C@H](CCC(N)=O)NC(=O)[C@H](Cc1c[nH]cn1)NC(=O)[C@H](CCCNC(=N)N)NC(=O)[C@H](Cc1ccccc1)NC(=O)[C@H](CC(=O)O)NC(=O)[C@H](Cc1c[nH]cn1)NC(=O)[C@@H](N)CC(C)C)C(=O)N[C@@H](CC(C)C)C(=O)O [SEQ ID NO: 2] (H-LHDFRHQIL-OH)
tissue half-life (in words) [1]: relatively favorable tissue half-life | adverse side-effects / toxicity (in words) [2]: no evidence of adverse side-effects; also recorded: non-toxic
